Consider 68 molecules from article doi:10.1101/2021.10.07.463234v2 (biorxiv, 2021).

Counter-ions that a name gives are not always drawn.

One assay deals with SARS-CoV-2 Mac1 (Severe acute respiratory syndrome coronavirus 2, UniProt P0DTD1). As to the kind of experiment: biochemical. Particulars: 100 µM; inhibitor.
For the molecule `COc1ccc(C[C@@H](C)NC[C@H](O)c2ccc(O)c(NC=O)c2)cc1` [Arformoterol Tartrate], the %inhibition (commonly the change of the read-out against control, counted positive when it falls) worked out at 8.751%.
Still for that read-out and setting: in the case of `COc1cc2nccc(Oc3ccc(NC(=O)NC4CC4)c(Cl)c3)c2cc1C(N)=O` [lenvatinib Mesylate] it was 0%; in that of `COc1cc(O)c(C(=O)Nc2nc(C(=O)NCCN(C(C)C)C(C)C)cs2)cc1OC` [Acotiamide hydrochloride], 0%; in that of `Cc1cn(-c2cc(NC(=O)c3ccc(C)c(Nc4nccc(-c5cccnc5)n4)c3)cc(C(F)(F)F)c2)cn1` [Nilotinib (AMN-107)], 40.49%.
For `COc1cc2c(cc1OC)C(=O)C(CC1CCN(Cc3ccccc3)CC1)C2` (centres unmarked) [Donepezil], the “%inhibition” value was determined as 5.95%.
Turning to `CN(C/C=C/C#CC(C)(C)C)Cc1cccc2ccccc12` [Terbinafine HCl], the “%inhibition” value was 13.33%.
On to `COc1cc2nccc(Oc3ccc(NC(=O)C4(C(=O)Nc5ccc(F)cc5)CC4)cc3)c2cc1OC` [Cabozantinib malate (XL184)], for which the “%inhibition” value was found to be 0%.
For the molecule `Cc1cccc(C)c1NC(=O)C1CCCCN1C` (centres unmarked) [Mepivacaine HCl], the “%inhibition” value is listed as 2.617%.

Staying with this assay, now noted: read-out: %inhibition.
Turning to `NNC(=O)c1ccncc1` [Isoniazid], the inhibition (as a rule, the share of the control response that was lost under treatment) at 100 µM worked out at 24.4%.
On the same count and under the same terms, with `Clc1ccc(C(OCCN2CCCCC2)c2ccccc2)cc1` (centres unmarked) [Cloperastine hydrochloride] the figure was 5.64%; with `NC(CO)(CO)CO` [Trometamol], 3.46%.
Same read-out and setting: in the case of `CC1(C)S[C@@H]2[C@H](NC(=O)C(C(=O)O)c3ccccc3)C(=O)N2[C@H]1C(=O)O` (some centres unmarked) [Carbenicillin disodium] it was 2.9%; in that of `C[C@@](Cc1ccc(O)c(O)c1)(NN)C(=O)O` [Carbidopa], 24.2%.
On the same count and under the same terms, with `CC(C)(O)CNc1nc(Nc2ccnc(C(F)(F)F)c2)nc(-c2cccc(C(F)(F)F)n2)n1` [Enasidenib (AG-221)] the figure was 6.78%.
In the case of `C[C@@H](c1nc(-c2ccc(C#N)cc2)cs1)[C@](O)(Cn1cncn1)c1cc(F)ccc1F` [Isavuconazole], the inhibition at 100 µM stood at 0%.
The same measure, in the same setting: with `CCS(=O)(=O)CCn1c([N+](=O)[O-])cnc1C` [Tinidazole] the figure was 0%.
Consider `CC(C)(C)c1ccc(C(O)CCCN2CCC(C(O)(c3ccccc3)c3ccccc3)CC2)cc1` (centres unmarked) [Terfenadine], for which the inhibition at 100 µM is 11%.
The same measure, in the same setting: with `Cc1cnc(Nc2ccc(OCCN3CCCC3)cc2)nc1Nc1cccc(S(=O)(=O)NC(C)(C)C)c1` [Fedratinib (SAR302503, TG101348)] the figure was 17.5%.
Still for that read-out and setting: in the case of `CCOc1cc(CC(=O)N[C@@H](CC(C)C)c2ccccc2N2CCCCC2)ccc1C(=O)O` [Repaglinide] it was 0%; in that of `COCCCC/C(=N\OCCN)c1ccc(C(F)(F)F)cc1` [Fluvoxamine maleate], 0%.
Same read-out and setting: in the case of `COC(=O)[C@]12CCC(C)(C)C[C@H]1[C@H]1C(=O)C=C3[C@@]4(C)C=C(C#N)C(=O)C(C)(C)[C@@H]4CC[C@@]3(C)[C@]1(C)CC2` [Bardoxolone Methyl] it was 16.4%; in that of `Cc1noc(NS(=O)(=O)c2ccc(N)cc2)c1C` [Sulfisoxazole], 20.4%; in that of `CC[C@H](C)C[C@H](C)CCCCCCCCC(=O)N[C@H]1C[C@@H](O)[C@@H](NCCN)NC(=O)[C@@H]2[C@@H](O)CCN2C(=O)[C@H]([C@H](O)CCN)NC(=O)[C@H]([C@H](O)[C@@H](O)c2ccc(O)cc2)NC(=O)[C@@H]2C[C@@H](O)CN2C(=O)[C@H]([C@@H](C)O)NC1=O` [Caspofungin Acetate], 0%.
With `CCN(CC)CCOC(=O)c1ccc(N)cc1Cl` [Chloroprocaine HCl], the inhibition at 100 µM amounted to 0%.
The same measure, in the same setting: in the case of `COc1cc2c(Oc3ccc(NC(=O)C4(C(=O)Nc5ccc(F)cc5)CC4)cc3F)ccnc2cc1OCCCN1CCOCC1` [Foretinib (GSK1363089)] it was 0%.
As for `CCC(=O)OCC(=O)[C@@]1(OC(=O)CC)[C@@H](C)C[C@H]2[C@@H]3CCC4=CC(=O)C=C[C@]4(C)[C@@]3(F)[C@@H](O)C[C@@]21C` [Betamethasone Dipropionate], the inhibition at 100 µM is 5.5%.
`CCCCc1oc2ccc(NS(C)(=O)=O)cc2c1C(=O)c1ccc(OCCCN(CCCC)CCCC)cc1` [Dronedarone HCl]: the inhibition at 100 µM stood at 0%.
On the same count and under the same terms, with `N=C(N)NN` [Aminoguanidine hydrochloride] the figure was 4.16%; with `Nc1c(CC(=O)O)cccc1C(=O)c1ccc(Br)cc1` [Bromfenac Sodium], 8.6%; with `CC[N+](C)(CC)CCOC(=O)C(O)(c1ccccc1)c1ccccc1` [Methylbenactyzine Bromide], 9.38%.
In the case of `Cc1ccc(C(=O)C(C)CN2CCCCC2)cc1` (centres unmarked) [Tolperisone HCl], the inhibition at 100 µM worked out at 8.81%.
Regarding `CCOC(=O)[C@H](CCc1ccccc1)N[C@H]1CS[C@H](c2cccs2)CN(CC(=O)O)C1=O` [Temocapril HCl], the inhibition at 100 µM turned out to be 0%.
Regarding `CCCc1ncc(C[n+]2ccccc2C)c(N)n1` [Amprolium HCl], the inhibition at 100 µM was 0%.
The same measure, in the same setting: with `Oc1ccc(O)cc1` [Hydroquinone] the figure was 7.86%; with `Cc1nc(C(=O)NCC(=O)O)c(O)c2ccc(Oc3ccccc3)cc12` [Roxadustat (FG-4592)], 14.8%; with `CC#C[C@]1(O)CC[C@H]2[C@@H]3CCC4=CC(=O)CCC4=C3[C@@H](c3ccc(N(C)C)cc3)C[C@@]21C` [Mifepristone], 8.31%.
Still for that read-out and setting: in the case of `Cc1cc(/C=C/C#N)cc(C)c1Nc1ccnc(Nc2ccc(C#N)cc2)n1` [Rilpivirine] it was 7.83%.
Still for that read-out and setting: with `CC1(C)[C@@H]2CC[C@@]1(C)C(=O)C2` [(+)-Camphor] the figure was 0%; with `CC(=O)OCC(=O)[C@H]1CC[C@H]2[C@@H]3CCC4=CC(=O)CC[C@]4(C)[C@H]3CC[C@]12C` [Deoxycorticosterone acetate], 3.46%.
Turning to `NCC1(CC(=O)O)CCCCC1` [Gabapentin], the inhibition at 100 µM came to 0%.
Same read-out and setting: in the case of `O=C1Cc2cc(CCN3CCN(c4nsc5ccccc45)CC3)c(Cl)cc2N1` [Ziprasidone HCl] it was 0%; in that of `CCCCc1nc(C)c(CC(=S)N(C)C)c(=O)n1Cc1ccc(-c2ccccc2-c2nnn[nH]2)cc1` [Fimasartan], 22.3%; in that of `CC1=C(/C=C/C(C)=C/C=C/C(C)=C\C(=O)O)C(C)(C)CCC1` [Isotretinoin], 0%.
The same measure, in the same setting: with `O=C(c1ccc(F)cc1)C1CCN(CCn2c(=O)[nH]c3ccccc3c2=O)CC1` [Ketanserin] the figure was 11.6%; with `CCOc1nc2cccc(C(=O)OC(C)OC(=O)OC3CCCCC3)c2n1Cc1ccc(-c2ccccc2-c2nn[nH]n2)cc1` (centres unmarked) [Candesartan Cilexetil], 0%.
Regarding `[O-][n+]1cccc(CO)c1` [Mepiroxol], the inhibition at 100 µM stood at 12.3%.
Still for that read-out and setting: with `COc1ccc(CN(CCN(C)C)c2ccccn2)cc1` [Pyrilamine Maleate] the figure was 5.37%; with `C=CC1=C(C(=O)O)N2C(=O)[C@@H](NC(=O)/C(=N\OCC(=O)O)c3csc(N)n3)[C@H]2SC1` [Cefixime], 0%.
On the same count and under the same terms, in the case of `CCOc1ccccc1OCCN[C@H](C)Cc1ccc(OC)c(S(N)(=O)=O)c1` [Tamsulosin hydrochloride] it was 0%; in that of `C[N+](C)(C)CCCCCCCCCC[N+](C)(C)C` [Decamethonium Bromide], 0%; in that of `Oc1cc(Cl)ccc1Oc1ccc(Cl)cc1Cl` [Triclosan], 0%.
On to `C/C(O)=C(\C#N)C(=O)Nc1ccc(C(F)(F)F)cc1` [Teriflunomide], for which the inhibition at 100 µM came out at 12.5%.
Same read-out and setting: with `C[C@H](CCC(=O)O)[C@H]1CC[C@H]2[C@@H]3[C@@H](O)C[C@@H]4C[C@H](O)CC[C@]4(C)[C@H]3CC[C@]12C` [Ursodiol] the figure was 0%; with `CCCCCCCCN=c1ccn(CCCCCCCCCCn2ccc(=NCCCCCCCC)cc2)cc1` [Octenidine Dihydrochloride], 16%.
The same measure, in the same setting: with `CN(C)c1cc(NC(=O)CNC(C)(C)C)c(O)c2c1C[C@H]1C[C@H]3[C@H](N(C)C)C(O)=C(C(N)=O)C(=O)[C@@]3(O)C(O)=C1C2=O` [Tigecycline] the figure was 0%; with `N=C(N)NC(=N)NCCc1ccccc1` [Phenformin HCl], 30.5%; with `COC(=O)C1=C(C)NC(C)=C(C(=O)OCCN(C)Cc2ccccc2)C1c1cccc([N+](=O)[O-])c1` (centres unmarked) [Nicardipine], 0%.
The same measure, in the same setting: with `CN(C)CCOC(C)(c1ccccc1)c1ccccn1` (centres unmarked) [Doxylamine Succinate] the figure was 4.4%; with `CC(=O)Oc1ccc(C(c2ccc(OC(C)=O)cc2)c2ccccn2)cc1` [Bisacodyl], 0%; with `CN(C)CCc1c[nH]c2ccc(Cn3cncn3)cc12` [Rizatriptan Benzoate], 0%.
Turning to `Cc1nc(=O)c2cc(CN(C)c3ccc(C(=O)N[C@@H](CCC(=O)O)C(=O)O)s3)ccc2[nH]1` [Raltitrexed], the inhibition at 100 µM is 24.8%.
Still for that read-out and setting: with `CC(C)(S)[C@@H](N)C(=O)O` [Penicillamine] the figure was 0.561%; with `O=C(CCCN1CC=C(n2c(=O)[nH]c3ccccc32)CC1)c1ccc(F)cc1` [Droperidol], 1.08%; with `CC(=O)O[C@]1(C(C)=O)CC[C@H]2[C@@H]3C[C@H](C)C4=CC(=O)C=C[C@]4(C)[C@@]3(F)[C@@H](O)C[C@@]21C` [Fluorometholone Acetate], 22.8%.
`O=C1Nc2ccc(Cl)cc2[C@@](C#CC2CC2)(C(F)(F)F)O1` [Efavirenz]: the inhibition at 100 µM was found to be 0%.
Still for that read-out and setting: with `COc1c(C)c2c(c(O)c1C/C=C(\C)CCC(=O)O)C(=O)OC2` [Mycophenolic acid] the figure was 0%.
Same read-out and setting: in the case of `CCOC(=O)C1=C(C)NC(C)=C(C(=O)OCC)C1c1ccccc1/C=C/C(=O)OC(C)(C)C` [Lacidipine] it was 3.07%; in that of `COC(=O)Nc1nc2cc(C(=O)c3ccc(F)cc3)ccc2[nH]1` [Flubendazole], 4.36%.
